Source: paper PMC7158207 (Clinical Pharmacology and Therapeutics, 2019)
In brackets after ≈: the same amount, converted by molar mass. Structures can show the parent of a compound that is named as a salt. Where two headings read alike, the source gives them in different places.

Legend:
[1] = Thermodynamic solubility measurement in FaSSIF pH 6.5 and SGF pH 1.6; assay type: physicochemical; settings: 37 °C, thermodynamic from solid
[2] = Caco-2 apparent passive permeability; assay type: in vitro ADME; settings: human, Caco-2, pH 7.4
[3] = cited from earlier work
[4] = cited from earlier work; for AUC fed/fasted ratio / Cmax fed/fasted ratio: erlotinib 150 mg
[5] = after oral administration; cited from earlier work
[6] = Dose-exposure proportionality in dose-escalating studies; assay type: in vivo, human; settings: based on data of ref 20
[7] = BCS II/IV drugs; cited from earlier work
[8] = ref 36 (dabrafenib), 40 (vemurafenib), 18 (pazopanib); cited from earlier work
[9] = SGF, pH 1.6, simulated gastric fluid
[10] = single dose, crizotinib 50-300, trametinib 0.125-10, dabrafenib 12-300, gefitinib 50-500 (HV), vemurafenib 240-960, pazopanib 50-2,000 mg

solubility at 24 h ([1]; FaSSIF, pH 6.5, fassif) [µg/mL]	solubility at 24 h [1, 9] [µg/mL]	Papp [2] [×10⁻⁶ cm/s]	Structure (SMILES)	Increase in exposure (dose-exposure proportionality) [3, 10]	other results
12.4	166	40.4	C#Cc1cccc(Nc2ncnc3cc(OCCOC)c(OCCOC)cc23)c1 [Erlotinib, erlotinib HCl]		Increase in exposure (dose-exposure proportionality) ([3]; dosing schedule N.A., imatinib 25-1,000 mg, erlotinib 100-1,000 mg): Dose proportional38; AUC fed/fasted ratio ([4]; first value (first period)): 1.97; Cmax fed/fasted ratio ([4]; first value (first period)): 1.57; AUC fed/fasted ratio ([4]; second value (second period)): 0.93; Cmax fed/fasted ratio ([4]; second value (second period)): 1.15; dose as parent drug in the feces [5]: 1 % of the dose
743 (≈ 1650 µM)		15.3	C[C@@H](Oc1cc(-c2cnn(C3CCNCC3)c2)cnc1N)c1c(Cl)ccc(F)c1Cl [Crizotinib]	Less than proportional	dose proportionality of single-dose PK in the authors' assessment [6]: linear
3.7	11.7	12.4	CC(C)(C)c1nc(-c2cccc(NS(=O)(=O)c3c(F)cccc3F)c2F)c(-c2ccnc(N)n2)s1 [Dabrafenib, Dabrafenib mesylate]	Dose proportional	
			O=C1NC(=O)C(c2ccccc2)(c2ccccc2)N1 [phenytoin]		absolute bioavailability (F) [7]: > 90%
		15.4	CC(=O)Nc1cccc(-n2c(=O)n(C3CC3)c(=O)c3c(Nc4ccc(I)cc4F)n(C)c(=O)c(C)c32)c1 [Trametinib, trametinib *DMSO solvate]	More than proportional (Cmax proportional)24	food effect ([4]; poorly water-soluble anticancer drugs): only a modest food effect, if any
88.7 (≈ 198 µM)		10.4	COc1cc2ncnc(Nc3ccc(F)c(Cl)c3)c2cc1OCCCN1CCOCC1 [Gefitinib, gefitinib]	Dose proportional	
5.4 (≈ 11 µM)	0.3 (≈ 0.612 µM)	0.11	CCCS(=O)(=O)Nc1ccc(F)c(C(=O)c2c[nH]c3ncc(-c4ccc(Cl)cc4)cc23)c1F [Vemurafenib, vemurafenib]	Dose proportional Dose proportional40	
1.2	1080	28.5	Cc1ccc(Nc2nccc(N(C)c3ccc4c(C)n(C)nc4c3)n2)cc1S(N)(=O)=O [Pazopanib, pazopanib hydrochloride (HCl)]	Less than proportional Less than proportional18	pKa values (acidic) [8]: 10.218
35	5.5	0.21	CS(=O)(=O)CCNCc1ccc(-c2ccc3ncnc(Nc4ccc(OCc5cccc(F)c5)c(Cl)c4)c3c2)o1 [Lapatinib, lapatinib ditosylate monohydrate]		
